# Where two headings read alike, the source gives them in different places.
# B1: IL-4: IL-4 (R&D systems, USA), cytokine used at 10 ng/ml (protein, UniProt P05112 25-153, looked up)
# Interleukin-4: HKCDITLQEIIKTLNSLTEQKTLCTELTVTDIFAASKNTTEKETFCRAATVLRQFYSHHEKDTRCLGATAQQFHRHKQLIRFLKRLDRNLWGLAGLNSCPVKEANQSTLENFLERLKTIMREKYSKCSS
# Experiments:
# [1] = system: recurrent uterine and ovarian cancers; conditions: cited from earlier work; for response rates: second line, recurrent disease, cisplatin uterine, carboplatin ovarian cancers
# [2] = system: ID8 tumour bearing animals; conditions: mouse, in vivo
# Experimental: To address the effects of LDCy on immunity in tumour bearing animals, ID8 implanted animals (n=5/group) were treated at post challenge (at the onset of detectable tumour growth in vivo) with one cycle of LDCy and assessed changes in T cell subsets ex-vivo at days 1, 7 and 14 post in vivo treatment by flow cytometry.
# [3] = system: CCR4 expression on T cells
# Experimental: (§1) Ten (10) human patients with gynaecological cancers with ages ranging from 62-82 years were recruited in a bicentric phase II trial. […] Disease progression was determined using RECIST and GCIG CA125 criteria (Rustin G J et al., (2011) Official journal of the International Gynaecological Cancer Society February; 21(2):419-23). From the time of recruitment, written consent was obtained from patients and pre-treatment blood samples were collected. Patients received oral doses of 50 mg cyclophosphamide twice daily (morning and evening), for 3 consecutive days and blood was collected 2 weeks later in EDTA coated tubes for whole blood and serum separation tubes for sera (BD Vacutainer, BD, USA). The treatment cycle and blood sampling were repeated at fortnightly intervals for up to 8 cycles. For healthy samples, buffy coats were obtained from routine blood donations, acquired at the Australian Red Cross Blood Service.
# Peripheral blood mononuclear cells (PBMCs) were isolated within 24 hours of blood collection via Ficoll (Amersham Pharmacia Biotech, Sweden) density gradient centrifugation. Cells were then washed in Dulbecco's Phosphate Buffered Saline (dPBS, Sigma-Aldrich, USA). The isolated PBMCs were frozen down in a freeze medium containing 10% DMSO (Sigma-Aldrich, USA) and 90% heat-inactivated fetal calf serum (GIBCO, Life Technologies, USA) or 90% human AB serum (Sera Laboratories International, UK) at a speed of 1° C./min at −80° C. and subsequently stored in liquid nitrogen. Upon thawing, each vial of frozen PBMCs was quickly defrosted in a 37° C. water-bath and re-suspended in AIM-V media (Life Technologies, USA) with 5% normal human serum (HS, Sigma-Aldrich, USA) (complete AIM-V media).
# Cells were then washed twice with stain buffer. […] Data were analysed using Flowjo software (TreeStar, USA).
# To investigate the effect of cyclophosphamide on CCR4 expression within T cells, the frequency of CCR4^+ cells pre-treatment (n=mean of 7-8 time points) was compared to the frequencies following each cycle of treatment (n=mean of 3-6 time points) for each individual patient.
# [4] = system: CD107a on CD4+ and CD8+ T cells; conditions: 3 increased % CCR4 patients; PMA and ionomycin 6 hours
# Experimental: The cytotoxic capacity of T cells was determined by culturing PBMCs with complete AIM-V media at 10^6 cells/500 μl/well in a 48 well plate. […] Brefeldin A (eBioscience, USA) was added at 3 μg/ml for the last 4 hours of incubation. After incubation, cells were washed and labelled for surface markers as described above. Cells were analysed using flow cytometry, unstimulated cells, fluorescence minus one (FMO) and isotype matched antibodies were also used as controls. Data were collected and analysed as above.
# The frequencies of CD107a+ cells within CD4+ and CD8+ T cells were determined using samples from 3 of the 4 increased % CCR4 patients at one of the time points when CCR4+ T cell frequencies was increased.
# [5] = system: advanced treatment-refractory gynaecological tumours
# Experimental: as §1
# [6] = system: CCR4 expression on T cells in PBMCs; test: In vitro drug experiment: CCR4 expression on T cells in PBMCs; conditions: 30 ng/ml, 72 hours
# [7] = system: acetylation of H3K9, H3K14 and H3K18; test: Histone 3 acetylation detection by flow cytometry; format: cell-based, human; conditions: 72 hours
# Experimental: The acetylation of histone 3 at lysine (H3K)9, H3K14 and H3K18 was assessed using flow cytometry. […] In the last 4 hours of culture, 50 nM panobinostat (LBH589, a pan histone deacetylase (HDAC) inhibitor) was added to the IL-2 cultures. Cells were harvested and prepared for flow cytometry analysis as described above. Following surface labelling, fixation and permeabilisation, cells were labelled with unconjugated anti-H3K9, anti-H3K14 and anti-H3K18 (Cell Signalling Technology, USA). Secondary labelling was performed using an Alexa Fluor 488 conjugated donkey anti-rabbit Ig antibody (Biolegend, USA). Data were collected and analysed as above.
# [8] = increased % CCR4 patients at time points of CCR4 increase, p<0.05
molecule,measurement,setting,value
N.N.O=C([O-])C1(C(=O)[O-])CCC1.[Pt+2] [carboplatin],response rates,[1],around 20%
N.N.[Cl][Pt][Cl] [cisplatin],response rates,[1],around 20%
O=P1(N(CCCl)CCCl)NCCCO1 (centres unmarked) [cyclophosphamide],CCR4+ CD4 T cell effectors in peripheral blood,[2],a trend towards CCR4^+ CD4 T cell effector increases
same,CCR4+ Treg in peripheral blood,[2],no increases
same,CCR4+CD8+ T cells in peripheral blood,[2],clear increases
same,CD69+ CD4 T cell effectors in TILS,[2],a trend towards CD69^+ CD4 T cell effector increases
same,CD69+ Treg in TILS,[2],no CD69^+Treg increases
same,CD69+CD8+ T cells in tumour infiltrating lymphocytes (TILS),[2],clearly increased
same,clinical benefit (share of patients),"[1]; low dose, women with recurrent ovarian cancer",25-44%
same,"mean ratio of CCR4+ Tconvs to CCR4+ Tregs, increased % CCR4 vs constant % CCR4 patients","[3]; first 3 cycles of treatment, p<0.01",over 2 fold
same,"mean ratio of CCR4+ CD8+ T cells to CCR4+ Tregs, increased % CCR4 vs constant % CCR4 patients","[3]; first 3 cycles of treatment, p<0.05",over 3 fold
same,frequency of CCR4+ cells within Tregs compared to pre-treatment,[3]; increased % CCR4 patients at time points of CCR4 increase,not significantly increased
same,fold increase in the frequency of CCR4+ cells within CD8+ T cells compared to pre-treatment,[3]; [8],5 fold
same,fold increase in the frequency of CCR4+ cells within Tconvs compared to pre-treatment,[3]; [8],5 fold
same,"CCR4 mean fluorescence intensity (MFI) within Tregs, Tconvs and CD8+ T cells relative to pre-treatment","[3]; increased % CCR4 patients, all 3 populations",remained unchanged
same,patients with significant increases in the frequency of CCR4+ cells within CD3+ T cells,"[3]; of the 10 patients, following at least one cycle, within the first 3 cycles",4
same,mean frequency of CD107a+ cells in CD4+ and CD8+ populations vs pre-treatment,[4],"increased compared to pre-treatment samples, however neither increase was significant"
same,mean overall survival,[5]; CCR4 spike patients (n=4),476 ± 80 days
same,mean overall survival,[5]; CCR4 steady patients (n=6),163 ± 37 days
same,patients who achieved stable disease,[5]; of the 4 CCR4 spike patients,3
same,patients who achieved stable disease,[5]; of the 6 CCR4 steady patients,None
same,increase in survival,[5]; patients with CCR4 up-regulation in vivo and in the in vitro CUP pre-test,> 300 days
same,survival of CCR4 spike patients relative to CCR4 steady patients,[5]; spike vs steady patients,approximately 3 times
CC(=O)O[C@H]1C(=O)[C@@]2(C)[C@H]([C@H](OC(=O)c3ccccc3)[C@]3(O)C[C@H](OC(=O)[C@H](O)[C@@H](NC(=O)c4ccccc4)c4ccccc4)C(C)=C1C3(C)C)[C@]1(OC(C)=O)CO[C@@H]1C[C@@H]2O [paclitaxel],frequency of CCR4+ T cells in healthy PBMCs,[6],does not Significantly Increase
B1,acetylation of H3K9 in CD8+ T cells,"[7]; IL-4 10 ng/ml, p<0.05",slight but significant decrease
same,acetylation of H3K14,[7]; mafosfamide […] or IL-4 10 ng/ml,Neither mafosfamide nor IL-4 treatment resulted in a change

# Reference: US11573234B2, “Predicting responders to cyclophosphamide therapy” (Royal Melbourne Institute of Technology, priority 2017, dated 2023)
